# Source: patent EP0477107B1, “Steroids contained in cyclodextrins” (Laboratoires BESINS ISCOVESCO Société anonyme dite :, priority 1990, dated 1992)
# Like-named read-outs stand apart in the source and are kept apart here.
# Test: Saturation solubility of steroids in water and in aqueous cyclodextrin solutions (25°, 72 h stirring, filtration, assay of supernatant)
# Format: physicochemical
# Procedure: On réalise des solutions de bétacyclodextrines à différentes concentrations de 0 à 5mM. A ces différentes solutions, on ajoute de la prégnane-5-béta-ol-3alpha-one-20 par pincées et ce jusqu'à apparition d'un précipité. On met sous agitation magnétique à 25° pendant 72 heures en prenant soin de vérifier à intervalles réguliers qu'il y a toujours saturation en stéroïdes. Au bout de 72 heures, on filtre les solutions ainsi réalisées et on dose le surnageant. Les résultats obtenus font l'objet de la courbe de la figure 1.
# Excepté la concentration en ladite cyclodextrine qui varie de 0 à 32mM, on procède selon le même protocole qu'à l'exemple 1; les résultats sont illustrés par la courbe de la figure 2.
# On procède selon le même protocole qu'à l'exemple 1. Les résultats sont représentés par la courbe de la figure 3.
# On travaille selon les mêmes conditions qu'à l'exemple 1. Les résultats obtenus sont schématisés par la courbe de la figure 4.
# On suit encore le même protocole qu'à l'exemple 1 sauf en ce que la concentration en bétacyclodextrine varie de 0 à 4mM et les résultats font l'objet de la courbe de la figure 5.
# Ici encore on suit le même protocole qu'à l'exemple 1 sauf en ce que la concentration en hydroxypropybéta-cyclodextrine varie de 0 à 32mM et les résultats sont représentés par la courbe de la figure 6.
molecule,measurement,setting,value
"CC(=O)[C@H]1CC[C@H]2[C@@H]3CC[C@@H]4C[C@H](O)CC[C@]4(C)[C@H]3CC[C@]12C [Prégnanolone, prégnanol-3alpha-one-20]",solubility at 72 h,"water + betacyclodextrin, read-out: SOLUBILITE EN GRAMMES PAR LITRE dans eau + bétacyclodextrine",440 µg/mL
same,solubility at 72 h,"water + hydroxypropylbetacyclodextrin, optimal solubility read from the curves at the adequate hydroxypropylbétacyclodextrine concentration (up to 32mM), 25°, 72 h, read-out: SOLUBILITE EN GRAMMES PAR LITRE dans eau + hydroxypropylbétacyclodextrine",3000 µg/mL
same,solubility at 72 h,"water without cyclodextrin, 25°, 72 h, read-out: SOLUBILITE EN GRAMMES PAR LITRE dans l'eau",5 µg/mL
"prégnane-diol-3,20 [Dihydroprogestérone]",SOLUBILITE EN GRAMMES PAR LITRE dans eau + bétacyclodextrine,"optimal solubility read from the curves at the adequate bétacyclodextrine concentration (0 to 5mM; 0 to 4mM for dihydro-4-progestérone), 25°, 72 h","0,06 GRAMMES PAR LITRE"
same,SOLUBILITE EN GRAMMES PAR LITRE dans eau + hydroxypropylbétacyclodextrine,"optimal solubility read from the curves at the adequate hydroxypropylbétacyclodextrine concentration (up to 32mM), 25°, 72 h","1,4 GRAMMES PAR LITRE"
same,SOLUBILITE EN GRAMMES PAR LITRE dans l'eau,"water without cyclodextrin, 25°, 72 h","0,005 GRAMMES PAR LITRE"
